Measured values: ChEMBL document CHEMBL4000244, “Probing A-form DNA: A fluorescent aminosugar probe and dual recognition by anthraquinone-neomycin conjugates” (Bioorg Med Chem, 2017)

Experiments:
[1] = Binding affinity to 5'-GGCCGCCG-3' DNA hairpin assessed as change in fluorescence intensity at 1 uM after 45 mins by fluorescence quenching analysis relative to control
[2] = Binding affinity to 5'-CGCCGGGG-3' DNA hairpin assessed as change in fluorescence intensity at 1 uM after 45 mins by fluorescence quenching analysis relative to control
[3] = Binding affinity to 5'-GGCGCCGC-3' DNA hairpin assessed as change in fluorescence intensity at 1 uM after 45 mins by fluorescence quenching analysis relative to control
[4] = Binding affinity to 5'-GCCCGCCG-3' DNA hairpin assessed as change in fluorescence intensity at 1 uM after 45 mins by fluorescence quenching analysis relative to control
[5] = Binding affinity to 5'-CGGGGGGG-3' DNA hairpin assessed as change in fluorescence intensity at 1 uM after 45 mins by fluorescence quenching analysis relative to control
[6] = Binding affinity to 5'-GGGGGCGC-3' DNA hairpin assessed as change in fluorescence intensity at 1 uM after 45 mins by fluorescence quenching analysis relative to control
[7] = Binding affinity to 5'-CGGGCGGG-3' DNA hairpin assessed as change in fluorescence intensity at 1 uM after 45 mins by fluorescence quenching analysis relative to control
[8] = Binding affinity to 5'-GCGCCCCG-3' DNA hairpin assessed as change in fluorescence intensity at 1 uM after 45 mins by fluorescence quenching analysis relative to control
[9] = Binding affinity to 5'-CGCGCGCC-3' DNA hairpin assessed as change in fluorescence intensity at 1 uM after 45 mins by fluorescence quenching analysis relative to control
[10] = Binding affinity to 5'-CGCCGCCG-3' DNA hairpin assessed as change in fluorescence intensity at 1 uM after 45 mins by fluorescence quenching analysis relative to control
[11] = Binding affinity to 5'-GGCCGCGC-3' DNA hairpin assessed as change in fluorescence intensity at 1 uM after 45 mins by fluorescence quenching analysis relative to control
[12] = Binding affinity to 5'-CGGGGCCG-3' DNA hairpin assessed as change in fluorescence intensity at 1 uM after 45 mins by fluorescence quenching analysis relative to control
[13] = Binding affinity to 5'-GGGGGCCG-3' DNA hairpin assessed as change in fluorescence intensity at 1 uM after 45 mins by fluorescence quenching analysis relative to control
[14] = Binding affinity to 5'-GGCGCCGG-3' DNA hairpin assessed as change in fluorescence intensity at 1 uM after 45 mins by fluorescence quenching analysis relative to control
[15] = Binding affinity to 5'-CGGGCGCG-3' DNA hairpin assessed as change in fluorescence intensity at 1 uM after 45 mins by fluorescence quenching analysis relative to control
[16] = Binding affinity to 5'-CCGCCCGG-3' DNA hairpin assessed as change in fluorescence intensity at 1 uM after 45 mins by fluorescence quenching analysis relative to control
[17] = Binding affinity to 5'-GCGGCCGC-3' DNA hairpin assessed as change in fluorescence intensity at 1 uM after 45 mins by fluorescence quenching analysis relative to control
[18] = Binding affinity to 5'-GCCGGCGG-3' DNA hairpin assessed as change in fluorescence intensity at 1 uM after 45 mins by fluorescence quenching analysis relative to control
[19] = Binding affinity to 5'-CCCCCCGG-3' DNA hairpin assessed as change in fluorescence intensity at 1 uM after 45 mins by fluorescence quenching analysis relative to control
[20] = Binding affinity to 5'-GCGCCCGG-3' DNA hairpin assessed as change in fluorescence intensity at 1 uM after 45 mins by fluorescence quenching analysis relative to control
[21] = Binding affinity to 5'-CCCCCGCC-3' DNA hairpin assessed as change in fluorescence intensity at 1 uM after 45 mins by fluorescence quenching analysis relative to control
[22] = Binding affinity to 5'-CGGCGCCG-3' DNA hairpin assessed as change in fluorescence intensity at 1 uM after 45 mins by fluorescence quenching analysis relative to control
[23] = Binding affinity to 5'-GGCCGGGG-3' DNA hairpin assessed as change in fluorescence intensity at 1 uM after 45 mins by fluorescence quenching analysis relative to control
[24] = Binding affinity to 5'-CGGCCGCC-3' DNA hairpin assessed as change in fluorescence intensity at 1 uM after 45 mins by fluorescence quenching analysis relative to control
[25] = Binding affinity to 5'-GGCCCGCG-3' DNA hairpin assessed as change in fluorescence intensity at 1 uM after 45 mins by fluorescence quenching analysis relative to control
[26] = Binding affinity to 5'-GCGCGCGG-3' DNA hairpin assessed as change in fluorescence intensity at 1 uM after 45 mins by fluorescence quenching analysis relative to control
[27] = Binding affinity to 5'-GCCGCGCG-3' DNA hairpin assessed as change in fluorescence intensity at 1 uM after 45 mins by fluorescence quenching analysis relative to control
[28] = Binding affinity to 5'-GCGCGGGC-3' DNA hairpin assessed as change in fluorescence intensity at 1 uM after 45 mins by fluorescence quenching analysis relative to control
[29] = Binding affinity to 5'-GCCGGCGC-3' DNA hairpin assessed as change in fluorescence intensity at 1 uM after 45 mins by fluorescence quenching analysis relative to control
[30] = Binding affinity to 5'-GCCGGCCG-3' DNA hairpin assessed as change in fluorescence intensity at 1 uM after 45 mins by fluorescence quenching analysis relative to control
[31] = Binding affinity to 5'-GCGCGCCC-3' DNA hairpin assessed as change in fluorescence intensity at 1 uM after 45 mins by fluorescence quenching analysis relative to control
[32] = Binding affinity to 5'-CCGGCCGC-3' DNA hairpin assessed as change in fluorescence intensity at 1 uM after 45 mins by fluorescence quenching analysis relative to control
[33] = Binding affinity to 5'-GGGCCGCG-3' DNA hairpin assessed as change in fluorescence intensity at 1 uM after 45 mins by fluorescence quenching analysis relative to control
[34] = Binding affinity to 5'-GCCCGCCC-3' DNA hairpin assessed as change in fluorescence intensity at 1 uM after 45 mins by fluorescence quenching analysis relative to control
[35] = Binding affinity to 5'-GGCCCCGG-3' DNA hairpin assessed as change in fluorescence intensity at 1 uM after 45 mins by fluorescence quenching analysis relative to control
[36] = Binding affinity to 5'-GCGCGCCG-3' DNA hairpin assessed as change in fluorescence intensity at 1 uM after 45 mins by fluorescence quenching analysis relative to control

NCC1O[C@H](O[C@H]2[C@@H](O)[C@H](O[C@@H]3[C@@H](O)[C@H](N)C[C@H](N)[C@H]3O[C@H]3O[C@H](CN)[C@@H](O)[C@H](O)[C@H]3N)O[C@@H]2CSCCNC(=O)CCSCC(=O)Nc2ccc(-c3c4ccc(=O)cc-4oc4cc(O)ccc34)c(C(=O)O)c2)[C@H](N)[C@@H](O)[C@@H]1O (stereo partly specified)
Activity [1]: 40.7% | Activity [2]: 47.3% | Activity [3]: 48.4% | Activity [4]: 43.8% | Activity [5]: 35.9% | Activity [6]: 35.6% | Activity [7]: 50.6% | Activity [8]: 44.1% | Activity [9]: 52.2% | Activity [10]: 48.1% | Activity [11]: 39.6% | Activity [12]: 41.1% | Activity [13]: 29.9% | Activity [14]: 53.2% | Activity [15]: 48.7% | Activity [16]: 56.8% | Activity [17]: 54.5% | Activity [18]: 53.8% | Activity [19]: 30.9% | Activity [20]: 49.3% | Activity [21]: 39.1% | Activity [22]: 42.9% | Activity [23]: 38.1% | Activity [24]: 47.7% | Activity [25]: 34.3% | Activity [26]: 51.2% | Activity [27]: 58.2% | Activity [28]: 51.8% | Activity [29]: 51.9% | Activity [30]: 45.3% | Activity [31]: 49.8% | Activity [32]: 57.7% | Activity [33]: 39.6% | Activity [34]: 47.8% | Activity [35]: 20.2% | Activity [36]: 44.2%
